The source of these data is US12655465B2, “System for detecting and characterizing a microorganism” (Q-Linea AB, priority 2016, dated 2026).

The test system of experiment [1] is E. coli. The experiment can be described thus: MIC with Macrobroth dilution. Format: cell-based. The settings on record: reference method; for MIC: Escherichia coli.
The subject of experiment [2] is E. coli. The settings on record: determined by another lab; cited from earlier work.
Experiment [3] relates to E. coli. The experiment can be described thus: AST by flow cytometry type counting of individual bacteria (Aquila 400), MIC from differential growth. Format: cell-based. The settings on record: Aquila 400 counting; for MIC: Escherichia coli. The procedure: The sample was enriched for bacteria and at the same time the culture media was changed, in this case to Mueller-Hinton media (MH-media). E. coli bacteria were recovered via filtration through a 0.2 μm filter and the recovered bacteria were resuspended in MH-media to a concentration of approximately 10^8 CFU/ml in Müller Hinton broth before being diluted to approximately 10^6 CFU/ml in Müller Hinton Broth. Antibiotic solutions were prepared in a series of 2:1 serial dilutions in Müller Hinton broth at 10× test concentrations. The range of antibiotic concentrations was chosen based on identity of the bacteria and the antibiotic. As the microorganism identified in Example 1 was E. coli in this case the following antibiotics were selected for use in the antimicrobial susceptibility test: Ciprofloxacin, Piperacillin+Tazobactam, Cefotaxime, Ceftazidim, Meropenem and Gentamicin. A series of eight different concentrations was selected based on known clinical MIC values. Eight sample tubes containing 100 μl antibiotic solution at eight different concentrations and 800 μl Müller Hinton broth were prepared. One additional tube contains 900 μl Müller Hinton broth and no antibiotic as positive control. 100 μl bacterial suspension (10^6 CFU/ml) was added to all nine tubes. A negative control sample comprising 1000 μl Müller Hinton broth (i.e., no bacteria) is prepared as negative control. All tubes were incubated at 35° C. and samples were taken after 0, 4, 6 and 24 hours. Bacterial samples were prepared for counting as in Example 2. Bacterial AST profiles were determined using a flow cytometry based counting of individual bacteria in an Aquila 400™ instrument (Q-linea AB, Sweden). Aquila 400 analysis was performed using the alexa 488™ laser. It was evident from the analysis performed at different time points that 4 hours was sufficient for detecting differential bacterial growth at the different concentration of antibiotics and thus to determine antibiotic susceptibility. Shorter times have been shown in the literature so this is not unexpected. MIC values for each antibiotic at different time points and cut-off values were calculated based on the differential bacterial growth. Values obtained by this method compared favorably with previously reported clinical MIC values and are shown below.

Setting [4] is: 4 h, cut-off 15%, 4 hours, read-out: MIC, 4 hours.
The mark [5] stands for this setting: 4 h, cut-off 20%, 4 hours, read-out: MIC, 4 hours.
Where [6] appears, read: 6 h, cut-off 5%, 6 hours, read-out: MIC, 6 hours.
[7] abbreviates: 6 h, cut-off 10%, 6 hours, read-out: MIC, 6 hours.
Where [8] appears, read: 6 h, cut-off 15%, 6 hours, read-out: MIC, 6 hours.
Setting [9] is: 6 h, cut-off 20%, 6 hours, read-out: MIC, 6 hours.
Setting [10] is: 24 h, cut-off 5%, 24 hours, read-out: MIC, 24 hours.
Where [11] appears, read: 24 h, cut-off 10%, 24 hours, read-out: MIC, 24 hours.
[12] abbreviates: 24 h, cut-off 15%, 24 hours, read-out: MIC, 24 hours.
The mark [13] stands for this setting: 24 h, cut-off 20%, 24 hours, read-out: MIC, 24 hours.
The mark [14] stands for this setting: 4 h, cut-off 5%, 4 hours incubation at 35° C. in Müller Hinton broth, read-out: MIC, 4 hours.
The mark [15] stands for this setting: 4 h, cut-off 10%, 4 hours, read-out: MIC, 4 hours.
The mark [16] stands for this setting: cut-off 5%, 4 hours incubation at 35° C. in Müller Hinton broth.

In brackets after ≈: the same amount, converted by molar mass.

With `CO/N=C(\C(=O)N[C@@H]1C(=O)N2C(C(=O)O)=C(COC(C)=O)CS[C@H]12)c1csc(N)n1` [Cefotaxime], the MIC in the experiment on E. coli [1] worked out at 0.125 µg/mL (≈ 0.274 µM); in the experiment on E. coli [3] (setting [4]), 0.06 µg/mL (≈ 0.132 µM); in the experiment with E. coli [3] (setting [5]), 0.06 µg/mL (≈ 0.132 µM); with E. coli [3] (setting [6]), 0.06 µg/mL (≈ 0.132 µM); in the experiment with E. coli [3] (setting [7]), 0.06 µg/mL (≈ 0.132 µM); with E. coli [3] (setting [8]), 0.03 µg/mL (≈ 0.0659 µM). Also, the MIC stood at 0.03 µg/mL (≈ 0.0659 µM) in the experiment with E. coli [3] (setting [9]); 0.125 µg/mL (≈ 0.274 µM) with E. coli [3] (setting [10]); 0.125 µg/mL (≈ 0.274 µM) in the experiment on E. coli [3] (setting [11]); 0.06 µg/mL (≈ 0.132 µM) in the experiment with E. coli [3] (setting [12]); 0.06 µg/mL (≈ 0.132 µM) in the experiment on E. coli [3] (setting [13]). In addition, the “MIC with E-test” value with E. coli [2] is not above 0.5 µg/mL.

For the compound `CC(C)(O/N=C(\C(=O)N[C@@H]1C(=O)N2C(C(=O)[O-])=C(C[n+]3ccccc3)CS[C@H]12)c1csc(N)n1)C(=O)O` [Ceftazidime], the MIC against E. coli [1] is 0.25 µg/mL (≈ 0.457 µM); with E. coli [3] (setting [14]), 0.25 µg/mL (≈ 0.457 µM); in the experiment with E. coli [3] (setting [15]), 0.25 µg/mL (≈ 0.457 µM); with E. coli [3] (setting [4]), 0.125 µg/mL (≈ 0.229 µM); in the experiment on E. coli [3] (setting [5]), 0.125 µg/mL (≈ 0.229 µM); with E. coli [3] (setting [6]), 0.125 µg/mL (≈ 0.229 µM). Also, the MIC worked out at 0.125 µg/mL (≈ 0.229 µM) in the experiment with E. coli [3] (setting [7]); 0.125 µg/mL (≈ 0.229 µM) in the experiment on E. coli [3] (setting [8]); 0.125 µg/mL (≈ 0.229 µM) in the experiment with E. coli [3] (setting [9]); 0.25 µg/mL (≈ 0.457 µM) with E. coli [3] (setting [10]); 0.25 µg/mL (≈ 0.457 µM) in the experiment on E. coli [3] (setting [11]); 0.25 µg/mL (≈ 0.457 µM) with E. coli [3] (setting [12]). In addition, the MIC in the experiment with E. coli [3] (setting [13]) was 0.25 µg/mL (≈ 0.457 µM). The “MIC with E-test” value in the experiment with E. coli [2] was not above 0.5 µg/mL.

Take `O=C(O)c1cn(C2CC2)c2cc(N3CCNCC3)c(F)cc2c1=O` [Ciprofloxacin]: the MIC was found to be 0.016 µg/mL (≈ 0.0483 µM) in the experiment on E. coli [1]; 0.016 µg/mL (≈ 0.0483 µM) with E. coli [3] (setting [14]); 0.008 µg/mL (≈ 0.0241 µM) in the experiment with E. coli [3] (setting [15]); 0.008 µg/mL (≈ 0.0241 µM) in the experiment on E. coli [3] (setting [4]); 0.008 µg/mL (≈ 0.0241 µM) in the experiment on E. coli [3] (setting [5]); 0.008 µg/mL (≈ 0.0241 µM) in the experiment with E. coli [3] (setting [6]). Also, the MIC with E. coli [3] (setting [7]) was found to be 0.008 µg/mL (≈ 0.0241 µM); with E. coli [3] (setting [8]) it was 0.008 µg/mL (≈ 0.0241 µM); in the experiment on E. coli [3] (setting [9]), 0.004 µg/mL (≈ 0.0121 µM); in the experiment on E. coli [3] (setting [10]), 0.008 µg/mL (≈ 0.0241 µM); with E. coli [3] (setting [11]), 0.008 µg/mL (≈ 0.0241 µM); in the experiment on E. coli [3] (setting [12]), 0.008 µg/mL (≈ 0.0241 µM). Moreover, in the experiment on E. coli [3] (setting [13]), the MIC is 0.008 µg/mL (≈ 0.0241 µM). Besides, the “MIC with E-test” value in the experiment with E. coli [2] is not above 0.03 µg/mL.

In the case of `C[C@@H](O)[C@H]1C(=O)N2C(C(=O)O)=C(S[C@@H]3CN[C@H](C(=O)N(C)C)C3)[C@H](C)[C@H]12` [Meropenem], the MIC with E. coli [1] was 0.25 to 0.5 µg/mL (≈ 0.652 to 1.3 µM); in the experiment on E. coli [3] (setting [5]), 0.5 µg/mL (≈ 1.3 µM); in the experiment on E. coli [3] (setting [8]), 0.5 µg/mL (≈ 1.3 µM); in the experiment with E. coli [3] (setting [9]) it was 0.25 µg/mL (≈ 0.652 µM); in the experiment with E. coli [3] (setting [10]) it was 0.5 µg/mL (≈ 1.3 µM); with E. coli [3] (setting [11]) it was 0.5 µg/mL (≈ 1.3 µM). The MIC in the experiment on E. coli [3] (setting [12]) is 0.25 µg/mL (≈ 0.652 µM); in the experiment with E. coli [3] (setting [13]) it was 0.125 µg/mL (≈ 0.326 µM). In the experiment with E. coli [2], the “MIC with E-test” value is not above 0.25 µg/mL.

Turning to Gentamicin, in the experiment on E. coli [1], the “MIC with Macrobroth dilution” value is 0.5 to 1 µg/mL. Also, the “MIC with E-test” value in the experiment on E. coli [2] was 1 µg/mL. The “MIC, 4 hours” value in the experiment with E. coli [3] (setting [16]) is 1 µg/mL; with E. coli [3] (cut-off 10%, 4 hours) it was 0.5 µg/mL; in the experiment on E. coli [3] (cut-off 15%, 4 hours) it was 0.5 µg/mL; with E. coli [3] (cut-off 20%, 4 hours), 0.5 µg/mL. In addition, the “MIC, 6 hours” value was found to be 0.5 µg/mL against E. coli [3] (cut-off 5%, 6 hours); 0.5 µg/mL against E. coli [3] (cut-off 10%, 6 hours); 0.5 µg/mL against E. coli [3] (cut-off 15%, 6 hours); 0.5 µg/mL against E. coli [3] (cut-off 20%, 6 hours). Also, the “MIC, 24 hours” value in the experiment with E. coli [3] (cut-off 5%, 24 hours) stood at 1 µg/mL; against E. coli [3] (cut-off 10%, 24 hours) it was 1 µg/mL; in the experiment on E. coli [3] (cut-off 15%, 24 hours), 1 µg/mL; in the experiment with E. coli [3] (cut-off 20%, 24 hours), 1 µg/mL.

For Piperacillin and Tazobactam, in the experiment on E. coli [1], the “MIC with Macrobroth dilution” value is 4 to 8 µg/mL. For the same compound, the “MIC with E-test” value in the experiment with E. coli [2] is 2 µg/mL. The “MIC, 4 hours” value was found to be 4 µg/mL in the experiment with E. coli [3] (setting [16]); 4 µg/mL against E. coli [3] (cut-off 10%, 4 hours); 4 µg/mL in the experiment with E. coli [3] (cut-off 15%, 4 hours); 4 µg/mL against E. coli [3] (cut-off 20%, 4 hours). The “MIC, 6 hours” value was 4 µg/mL in the experiment on E. coli [3] (cut-off 5%, 6 hours); 4 µg/mL in the experiment with E. coli [3] (cut-off 10%, 6 hours); 4 µg/mL against E. coli [3] (cut-off 15%, 6 hours); 2 µg/mL in the experiment on E. coli [3] (cut-off 20%, 6 hours). The “MIC, 24 hours” value in the experiment with E. coli [3] (cut-off 5%, 24 hours) amounted to 4 µg/mL; with E. coli [3] (cut-off 10%, 24 hours), 4 µg/mL; against E. coli [3] (cut-off 15%, 24 hours) it was 4 µg/mL; against E. coli [3] (cut-off 20%, 24 hours), 2 µg/mL.
